Data reported in patent publication US20030211036A1, “Method and apparatus for monitoring and quantitatively evaluating tumor perfusion” (priority 2002, published 2003).

What was measured:
[1] = HDO concentration in mice plasma by 2H-MRS during and post 2H-saline i.v. infusion (arterial input function); type: in vivo
Protocol: (§1) Enrichment of the mice's blood with HDO (99.8%) was achieved by applying a slow i.v. infusion of I ml ^2H-saline with a rate of 100 μl/min.
Blood samples ([…]) were drawn from anesthetized mice by retro orbital sinus puncture at 7 time points, 3 mice for each time point, during and post ^2H saline infusion. Samples were collected into separate tubes containing heparin (50 units/ml of blood, Elkins-Sinn Inc., Cherry Hill, N.J.) and were centrifuged at room temperature. The plasma supernatant samples were separated and transferred into 5 mm NMR tubes. ^2H-MR spectra of the plasma samples were recorded at 61.4 MHz on DMX-400 spectrometer (Bruker Analytik, Germany), with a broad-band probe by applying 90° pulses with 4 s repetition time (fully relaxed conditions). Choline-(CD3)3 was added to each plasma sample as an internal reference for concentration.
The 2-compartment kinetic model related the concentration of the tracer in the tissue to tissue's perfusion, as shown by Eq. [3]. Thus, knowledge of the changing arterial tracer concentration over time, termed arterial input function, was required for the numerical solution of the model. In order to obtain qualitative ^2H-images of the tumors and to allow monitoring of HDO uptake with high spatial resolution, a slow i.v. infusion of ^2H-saline, 1 ml in 10 min. was applied. This protocol enriched the content of HDO in the plasma, which is 0.0148% at natural abundance, by 6.8% of HDO that is below toxic levels (13, 14). HDO concentration in the plasma, determined by ^2H-MRS, was monitored during and post-^2H saline infusion (FIG. 1A). During the infusion, HDO accumulated linearly with a correlation coefficient, R^2, of 0.996. The slow decay of HDO in the plasma, post-infusion, approximated linearity with R^2=0.730. Thus, a linear regression analysis of the blood input function Cp(t), was applied in parts, producing two linear functions: (i) during ^2H-saline infusion at t=t0−tinfus, Cp(t)=f(t)=at+b and (ii) post ^2H-saline infusion at t=tinfus−tend, Cp(t)=g(t)=ct+d. […] The plasma concentrations of HDO before and at the end of ^2H-saline infusion were b=0.016 mmol·ml^−1 and d=7.69 mmol·ml^−1, respectively.

[2] = tested on: orthotopic MCF7 human breast cancer tumors; assay: Dynamic 3D 2H-MRI of HDO perfusion with two-compartment model-based analysis per voxel; type: in vivo, CD1-NU mice
From the text: A two-compartment model was custom developed for this activity to describe the kinetics of HDO in MCF7 tumors. The model, designed by Yeung et al. (41) to calculate blood brain transfer constant, is a special case of Patlak's blood-brain exchange model (31, 32). In the present work, the two compartments were assigned to the intravascular space with its respective volume fraction vp and the extravascular space, with its effective volume fraction of water ve* which is approximately 70% of the actual extravascular volume ve (ve*=0.7 ve) their respective volume fraction vp and ve* where,
The experimental kinetic data were fitted to Eq. [7] and Eq. [8] with two free parameters: K and vp, using the following substitutions: ve*=1−vp and kb=K/(1−vp). Deuterium signal intensity per pixel in arbitrary units was converted to Cv(t) in mmol/ml using a calibration solution of known deuterium concentration in saline solution ( 9.9 mmol/ml).
The method and apparatus of the present invention were tested experimentally according to the following protocol. Female CD1-NU athymic mice, 6 weeks old, were orthotopically inoculated in the mammary fat pad with MCF7 human breast cancer cells as previously described (33). Tumors were allowed to develop for 4-8 weeks, to sizes ranging between 0.2-2 cm^3 with average size 0.8±0.2 cm^3. For the MRI measurements, mice were anesthetized by exposure to 1% isoflurane (Medeva Pharmaceuticals, Inc., Rochester, N.Y.), in an O2/N2O (3:7) mixture, applied through a nose cone. Approval was obtained for all animal procedures according to the guidelines of the Committee on Animals of the Weizmann Institute of Science.
as §1
In-vivo imaging was accomplished by taking MR images and recording with a 4.7 T Biospec spectrometer (Bruker Analytik, Germany). ^2H and ^1H images were recorded at frequencies of 30.7 MHz and 200 MHz, respectively, and detected by a home-built double-tuned ^2H/^1H surface coil system, 1.5/2.5 cm in diameter. Dynamic ^2H MR images were acquired utilizing a 3-dimensional (3D) gradient echo sequence with the following parameters: echo time (TE)=3 msec, […] (TR)=60 msec, flip angle=45° achieved by an adiabatic pulse (sin/cos), 2 averages, matrix—128×64×16, 2.6 mm slice thickness, an in-plane resolution of 1×2 mm2 and acquisition time of 2.05 min. The sequential acquisition of ^2H-images began with a pre-infusion image and continued throughout ^2H-saline iv. infusion, into the tail vein of the mouse (1 ml/10 min.), and for 30 minutes thereafter. The pre-infusion images were recorded with a tube containing 9.9 mmol/ml HDO in saline solution, attached to the tumor. This served to calibrate the signal intensity to deuterium concentration in units of mmol/ml.
Image analysis was applied on the time evolution of ^2H intensity in a series of coronal images that were reconstructed from dynamic 3D images of the whole tumor acquired before, during and post ^2H-saline infusion. Analysis was performed utilizing a nonlinear least-square fitting algorithm, developed for the purpose of the invention, at a voxel resolution. The computed analysis initially converted ^2H intensity to concentration by referring to the intensity at the pre-infusion image (t=0) in the attached calibration tube that contained a solution of HDO at a concentration of 9.9 mmol/ml. […]

[3] = General well-being of the animals under the slow i.v. 2H-saline infusion protocol; type: in vivo, mice; conditions: i.v. infusion of 1 ml 2H-saline at 100 μl/min
Protocol: as §1

[4] = cited from earlier work

[2H]O[2H] [HDO, deuterated water]
plasma concentration of HDO before 2H-saline infusion (b) ([1]; mice plasma, before infusion): 0.016 mmol/mL | plasma concentration of HDO at the end of 2H-saline infusion (d) ([1]; mice plasma, end of i.v. infusion, 1 ml in 10 min): 7.69 mmol/mL | rate of HDO clearance from plasma post infusion (c) ([1]; mice plasma, post 2H-saline infusion, linear regression g(t)=ct+d): -0.07 mmol/mL/min | rate of HDO accumulation in plasma during infusion (a) ([1]; mice plasma, slow i.v. infusion of 2H-saline, 1 ml in 10 min, linear regression f(t)=at+b): 0.67 mmol/mL/min | enrichment of the content of HDO in the plasma ([1]; slow i.v. infusion of 2H-saline, 1 ml in 10 min, natural abundance 0.0148%): 6.8% | concentration of HDO in the plasma upon infusion with respect to bolus injection ([1]; slow i.v. infusion versus bolus injection of 200 μl): ~6 times higher | K, fit to the HDO perfusion kinetic model ([2]; FIG. 3 single voxel (a), R^2=0.94): 0.0016 min⁻¹ | K, fit to the HDO perfusion kinetic model ([2]; FIG. 3 single voxel (b), R^2=0.94): 0.0005 min⁻¹ | K, fit to the HDO perfusion kinetic model ([2]; FIG. 3 single voxel (c), R^2=0.96): 0.0031 min⁻¹ | range of the perfusion rate per voxel ([2]; all voxels of the parametric maps, seven MCF7 tumors): 4e-06 to 0.0039 min⁻¹ | Perfusion rate, K, Mean, Average ([2]; average of the total population of voxels in the ROIs of all tumors (n = 1278 pixels)): 1.02 ± 0.02 ·10^−3 min^−1 | adverse effects on the general well-being of the animals [3]: no adverse effects | HDO enrichment of body fluids considered nontoxic [4]: up to 10%
